These results are taken from patent US7741520B2, “Sulfonanilide analogs as selective aromatase modulators (SAMs)” (The Ohio State University Research Foundation, priority 2006, dated 2010).

The subject of data set [1] is aromatase activity in SK-BR-3 breast cancer cells. Put plainly: Aromatase tritiated water-release assay in SK-BR-3 cell lines (first compound set). It counts as cell-based, human. To be noted: SK-BR-3 cells, 24 h treatment; five concentrations, each in triplicate; read-out: IC50 (μM), suppression of aromatase activity in SK-BR-3 breast cancer cells. How it is done: Aromatase Tritiated Water-Release Assay in SK-BR-3 Cell Lines. SK-BR-3 cells were obtained from ATCC (Rockville, Md.). Cell cultures were maintained in phenol red-free custom media (MEM, Earle's salts, 1.5× amino acids, 2× nonessential amino acids, L-glutamine, 1.5× vitamins, Gibco BRL) supplemented with 10% fetal bovine serum (FBS), 2 mM L-glutamine, and 20 mg/L gentamycin. Measurement of aromatase enzyme activity was based on the tritium water release assay. 24 Cells in 100 mm Petri dish were treated with 0.1% DMSO (control), and inhibitors at the indicated concentrations. After 24 h, the media was changed and the cells were incubated with 100 nM [1â-3H]-androst-4-ene-3,17-dione ([…]) for 3 h. Subsequently, the reaction mixture was removed, and proteins were precipitated using 10% trichloroacetic acid at 42° C. for 20 min. After a brief centrifugation, the media was extracted three times with an equal amount of chloroform to extract unused substrate and further dextran-treated charcoal. After centrifugation, a 250-μL aliquot containing the product was counted in 5 mL of liquid scintillation mixture. Results were corrected for blanks and for the cell contents of culture flasks, and results were expressed as picomoles of 3H2O formed per hour incubation time per million live cells (pmol/h/10^6 cells). To determine the amount of cells in each flask, the cells were trypsinized and analyzed using the diphenylamine DNA assay adapted to a 96-well plate. (Natarajan N.; Shambaugh, G. E., 3rd; Elseth K. M.; Haines G. K.; Radosevich J. A. Adaptation of the diphenylamine (DPA) assay to a 96-well plate tissue culture format and comparison with the MTT assay. Biotechniques 1994, 17, 166-171; incorporated herein by reference). IC50 sigmoidal dose-response data were analyzed with Microsoft Excel and the Graphpad Prism (Version 3.0) program.

The test system of data set [2] is PGE2 production in MDA-MB-231 cells. Put plainly: Enzyme immunoassay of PGE2 in MDA-MB-231 cells (COX-2 inhibitory activity). The class given is cell-based, human. The conditions noted are these: 25 μM, 24 h (FIG. 4). How it is done:
Enzyme Immunoassay of PGE2 in MDA-MB-231 Cells. MDA-MB-231 cells were obtained from ATCC (Rockville, Md.). Cell cultures were maintained in phenol red-free custom media (MEM, Earle's salts, 1.5× amino acids, 2× nonessential amino acids, L-glutamine, 1.5× vitamins, Gibco BRL) supplemented with 10% fetal bovine serum (FBS), 2 mM L-glutamine and 20 mg/L gentamycin. To study PGE2 synthesis in cell culture media, experiments were performed in […] Petri dishes. An aliquot of MDA-MB-231 cells (15×10^4 cells) were added to each dish and then incubated overnight to allow the cells to adhere to the dish. After that, cells were serum starved in defined media for 24 h. This step was followed by replacement of media with fresh media containing either vehicle (DMSO) or the indicated concentration of agents. After 24 h incubation at 37° C. the media were collected and the amount of PGE2 was determined by ELISA (Cayman Chemical) according to the protocol provided by the manufacturer. PGE2 concentration was normalized to total protein. Total proteins were extracted from adhered cells by 30 min treatment with 0.5 M NaOH at room temperature and shaking. Protein concentrations in these extracts were determined using a protein assay method (Bio-Rad Laboratories, Inc., Hercules, Calif.).

Data set [3] addresses T1, aromatase activity in JAR choriocarcinoma placental cells (Homo sapiens, UniProt P11511).
T1 construct: JAR choriocarcinoma placental cells (which produce aromatase expression from promoter I.1 mediated by protein kinase C); host or cells: JAR
T1 sequence (P11511 1-503): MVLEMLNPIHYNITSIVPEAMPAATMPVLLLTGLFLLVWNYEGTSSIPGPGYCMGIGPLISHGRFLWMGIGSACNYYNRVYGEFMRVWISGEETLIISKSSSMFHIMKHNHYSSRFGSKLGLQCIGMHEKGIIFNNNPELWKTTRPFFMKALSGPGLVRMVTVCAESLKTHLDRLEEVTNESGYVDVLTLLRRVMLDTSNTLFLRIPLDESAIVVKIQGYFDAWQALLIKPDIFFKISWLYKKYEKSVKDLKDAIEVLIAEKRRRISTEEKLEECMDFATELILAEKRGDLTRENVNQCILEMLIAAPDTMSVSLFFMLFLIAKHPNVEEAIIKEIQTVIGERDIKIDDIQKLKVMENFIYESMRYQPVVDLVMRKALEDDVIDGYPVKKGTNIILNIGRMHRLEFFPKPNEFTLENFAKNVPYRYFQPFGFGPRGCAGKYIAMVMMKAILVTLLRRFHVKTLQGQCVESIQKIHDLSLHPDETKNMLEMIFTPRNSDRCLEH
Put plainly: Tritiated water-release assay in JAR cells. It counts as cell-based. The conditions noted are these: for inhibition at 15 µM: 24 h, 15 μM (FIG. 11), read-out: decrease of aromatase activity in JAR cells. The procedure: (§1) Cell Culture. AR and SK-BR-3 cells were obtained from ATCC (Rockville, Md.). SK-BR-3 cells were maintained in phenol red-free custom media (MEM, Earle's salts, 1.5× amino acids, 2× non-essential amino acids, L-glutamine, 1.5× vitamins, Gibco BRL) supplemented with 10% fetal bovine serum (FBS), 2 mM L-glutamine and 20 mg/L gentamycin. JAR cells were maintained in RPMI 1640 medium with 2 mM L-glutamine adjusted to contain 1.5 g/L sodium bicarbonate, 4.5 g/L glucose, 10 mM HEPES, and 1.0 mM sodium pyruvate, 90%; FBS, 10%. Fetal bovine serum was heat inactivated for 30 min in a 56° C. water bath before use. Cell cultures were grown at 37° C., in a humidified atmosphere of 5% CO2 in a Hereaus CO2 incubator. For all experiments, cells were plated in 6 well plates and grown to subconfluency. Before treatment, the media was changed to a defined one containing DMEM/F12 media (Sigma) with 1.0 mg/mL human albumin (OSU Hospital Pharmacy), 5.0 mg/L human transferin and 5.0 mg/L bovine insulin.
(§2) Tritiated water-release assay in JAR and SK-BR-3 cell lines. Measurement of aromatase enzyme activity was based on the tritium water release assay. Cells in six well plates were treated with 0.1% DMSO (control), and inhibitors at the indicated concentrations. After 24 hours, the cells were incubated 3 hours (SK-BR-3 cells) or 1 hour (JAR cells) with fresh media along with 100 nM [1β-^3H]-androst-4-ene-3,17-dione (1 μCi). Subsequently, the reaction mixture was removed, and proteins were precipitated using 10% trichloroacetic acid at 42° C. for 20 min. After a brief centrifugation, the media was extracted three times with an equal amount of chloroform to remove remaining substrate and further treated with dextran-treated charcoal. After centrifugation, a 250-μl aliquot containing the product was counted in 5 ml of liquid scintillation mixture. Results were corrected for blanks and for the cell contents of culture flasks, and results were expressed as picomoles of ^3H2O formed per hour incubation time per million live cells (pmol/h/10^6 cells). To determine the amount of cells in each flask, the cells were lysed and analyzed using the diphenylamine DNA assay adapted to a 96-well plate. IC50 sigmoidal dose-response data were analyzed with Microsoft Excel and the Graphpad Prism (Version 3.0) program.
(§3) Diphenylamine DNA Assay To determine the amount of viable cells in each flask, the cells were lysed with 0.5N NaOH aqueous solution and analyzed using the diphenylamine DNA assay adapted to a 96-well plate. DNA standards (0-30 μg) were prepared using double-stranded DNA reconstituted in PBS and added in triplicates directly to the wells. A uniform cell suspension was prepared from the 6 well plate in 300 μl 0.5N NaOH aqueous solution, and 60 μl of the unknown samples were added in triplicates to separate wells. A solution of 0.16% acetaldehyde in water was prepared and mixed at a 1:5 ratio with perchloric acid (20% vol/vol). This solution (60 μl) was added to each well along with 100 μl of a 4% diphenylamine solution in glacial acetic acid. The plates were incubated at 37° C. for 24 hours. After centrifugation, 100 μl supernatant of each well was transferred to a new 96 well plate, and the OD595 was measured using a microplater reader. The DNA concentration was determined by extrapolation to the standard curve and the amount of cells/well was calculated using the equation: 1 cell≈7 pg DNA.

For data set [4], the system named is aromatase activity in SK-BR-3 breast cancer cells. Briefly: Tritiated water-release assay in SK-BR-3 cells (additional compounds). It counts as cell-based, human. How it is done:
as §1, with “JAR cells were maintained in RPMI 1640 medium with 2 mM L-glutamine adjusted to contain 1.5 g/L sodium bicarbonate, 4.5 g/L glucose, 10 mM HEPES, and 1.0 mM sodium pyruvate, 90%; FBS, 10%.” left out
as §2
as §3, with “A solution of 0.16% acetaldehyde in water was prepared and mixed at a 1:5 ratio with perchloric acid (20% vol/vol).” left out

By IC50 is commonly meant the point on the concentration scale where inhibition reaches its midpoint. Turning to `CC1CCCCC1Oc1cc([N+](=O)[O-])ccc1NS(C)(=O)=O` (centres unmarked) [Compound 11, N-(2-Methylcyclohexyloxy-4-nitrophenyl)methanesulfonamide], the IC50 in data set [1] is 1.21 µM. Further, the “PGE2 production (COX-2 inhibitory activity)” value in data set [2] was “did not show any COX-2 inhibitory activity”.
As a reminder, the melting point is the temperature of the solid-liquid transition. `CS(=O)(=O)Nc1ccc([N+](=O)[O-])cc1OC1CCCC1` [Compound 12, N-(2-Cyclopentyloxy-4-nitrophenyl)methanesulfonamide] displayed a melting point of 139 to 140 °C. Besides, the IC50 in data set [1] is 0.87 µM. Also, the “PGE2 production (COX-2 inhibitory activity)” value in data set [2] is on record as “significantly decrease in PGE2 production”.
Turning to `CC1CCCCC1Oc1cc([N+](=O)[O-])ccc1N(C)S(C)(=O)=O` (centres unmarked) [Compound 20, N-Methyl-N-(2-methylcyclohexyloxy-4-nitrophenyl)methanesulfonamide], the IC50 in data set [1] is 0.96 µM. The “PGE2 production (COX-2 inhibitory activity)” value in data set [2] is reported as “did not show any inhibitory activity”.
Compound `CN(c1ccc([N+](=O)[O-])cc1OC1CCCC1)S(C)(=O)=O` [Compound 21, N-Methyl-N-(2-cyclopentyloxy-4-nitrophenyl)methanesulfonamide] yielded a melting point of 102 to 104 °C. Besides, in data set [1], the IC50 was 0.44 µM. In addition, the “PGE2 production (COX-2 inhibitory activity)” value in data set [2] is reported as “did not show any inhibitory activity”.
The compound `CS(=O)(=O)Nc1ccc([N+](=O)[O-])cc1OCc1cccc2ccccc12` [Compound 38b, N-[2-(α-naphthylmethoxy) 4-nitrophenyl]methanesulfonamide] yielded a melting point of 193 to 195 °C. Moreover, the “aromatase suppression activity in JAR cells (in words)” value in data set [3] (15 μM) is “inhibited aromatase activity in both JAR cells and SK-BR-3 cells”. Also, the inhibition at 15 µM in data set [3] was less than 50%. Moreover, the “decrease of aromatase activity in SK-BR-3 cells (in words)” value in data set [4] (2.5 μM) was “inhibited aromatase activity in both JAR cells and SK-BR-3 cells”.
Regarding `CN(c1ccc([N+](=O)[O-])cc1OCc1cccc2ccccc12)S(C)(=O)=O` [Compound 38c, N-methyl-N-[2-(α-naphthylmethoxy) 4-nitrophenyl]methanesulfonamide], the melting point fell in the range of 163 to 165 °C. The inhibition at 15 µM in data set [3] is less than 50%.
As for `CS(=O)(=O)Nc1ccc([N+](=O)[O-])cc1Oc1ccccc1` [Nimesulide, N-(2-phenoxy-4-nitrophenyl)-methanesulfonamide, reference compound], the IC50 in data set [4] (dose-response (FIG. 13), read-out: IC50 (μM), suppression of aromatase activity in SK-BR-3 breast cancer cells) was 27 µM.
